Laboratory results from ChEMBL document CHEMBL5393443, “Novel inhibitors of insulin-like growth factor 2 mrna binding proteins” (2022).

Tested on: ES-2
Assay: Cytotoxicity against human ES2 cells after 72 hrs by InuCyte live cell imaging analysis
Assay type: functional, cell-based
Settings: ES-2, 72 h

In order of falling EC50:
1. NC(=O)c1ccccc1NC(=O)c1ccccc1  10.5 µM
2. NC(=O)c1ccccc1NC(=O)CN1CCN(Cc2ccccc2Cl)CC1  9.58 µM
3. COc1ccc(C(=O)Nc2sc(C(C)C)cc2C(N)=O)cc1COc1ccc(Br)cc1  8.35 µM
4. NC(=O)c1cc(Cc2ccccc2)sc1NC(=O)CN1CCN(Cc2ccccc2Cl)CC1  7.11 µM
5. NC(=O)c1ccccc1NC(=O)CN1CCN(Cc2c(Cl)cccc2Cl)CC1  6.46 µM
6. NC(=O)c1c(NC(=O)c2ccc(Cl)s2)sc2c1CCC2  6.27 µM
7. NC(=O)c1cc(Cc2ccccc2)sc1NC(=O)CCc1ccccc1  6.21 µM
8. COc1ccc(C(=O)Nc2ccccc2C(N)=O)cc1Cl  5.84 µM
9. NC(=O)c1ccccc1OCc1ccc(Cl)s1  5.61 µM
10. NC(=O)c1ccccc1NC(=O)C1CCN(C(=O)c2cccs2)CC1  5.18 µM
11. NC(=O)c1ccccc1NC(=O)c1cc(Cl)cc(Cl)c1  5.15 µM
12. CCc1c(C(=O)Nc2sc(Cc3ccccc3)cc2C(N)=O)csc1C  5.06 µM
13. Cc1cc2c(O)nc(Cc3ccccc3)nc2s1  4.84 µM
14. NC(=O)c1cc(Cc2ccccc2)sc1NC(=O)CN1CCN(Cc2ccc(Cl)c(Cl)c2)CC1  4.09 µM
15. CC(Sc1nnc(NC(=O)c2ccccc2)s1)c1nc2ccccc2c(=O)[nH]1 (configuration not stated)  4.05 µM
16. NC(=O)c1ccsc1NC(=O)c1cccs1  3.23 µM
17. NC(=O)c1ccccc1NC(=O)CN1CCN(Cc2ccc(F)cc2Cl)CC1  3.17 µM
18. NC(=O)c1ccccc1NC(=O)CN1CCN(Cc2ccc(Cl)cc2)CC1  2.99 µM
19. NC(=O)c1ccccc1OCC(=O)c1ccc(Br)cc1  2.95 µM
20. CCc1cc(C(=O)Nc2sccc2C(N)=O)cs1  2.95 µM
21. CNC(=O)c1ccccc1NC(=O)c1cc(C)c(C)s1  2.83 µM
22. COc1ccc(C(=O)Nc2sc(Cc3ccccc3)cc2C(N)=O)cc1COc1c(Cl)cccc1Cl  2.6 µM
23. CC(C)c1cc(C(N)=O)c(NC(=O)Cc2ccc(Cl)c(Cl)c2)s1  2.45 µM
24. NC(=O)c1cc(Cc2ccccc2)sc1NC(=O)COc1ccccc1  2.42 µM
25. NC(=O)c1ccccc1NC(=O)c1ccc(Cl)s1  2.3 µM
26. NC(=O)c1cc(Cc2ccccc2)sc1NC(=O)c1ccccc1  2.27 µM
27. COc1ccc(C(=O)Nc2sc(C(C)C)cc2C(N)=O)cc1COc1ccccc1Cl  2.23 µM
28. Cc1ccc(C(=O)Nc2ccccc2C(N)=O)s1  2.06 µM
29. COc1ccc(C(=O)Nc2sc(Cc3ccccc3)cc2C(N)=O)cc1  1.94 µM
30. CCc1cc(C(=O)Nc2sc(Cc3ccccc3)cc2C(N)=O)cs1  1.9 µM
31. NC(=O)c1ccccc1NC(=O)c1ccc(Cl)c(Cl)c1  1.88 µM
32. COc1cc(/C=C/C(=O)Nc2ccccc2C(N)=O)ccc1OCc1ccccc1  1.88 µM
33. NC(=O)c1cc(Cc2ccccc2)sc1NC(=O)c1ccc(Cl)s1  1.66 µM
34. COc1ccc(C(=O)Nc2sccc2C(N)=O)cc1COc1ccccc1Cl  1.66 µM
35. NC(=O)c1c(NC(=O)c2ccc(Cl)s2)sc2c1CCCC2  1.47 µM
36. Cc1ccc(C(=O)Nc2sc(Cc3ccccc3)cc2C(N)=O)o1  1.34 µM
37. NC(=O)c1cc(Cl)ccc1OCC(=O)c1ccc(Cl)s1  1.33 µM
38. NC(=O)c1cc(Cc2ccccc2)sc1NC(=O)c1ccc2c(c1)OCO2  1.3 µM
39. NC(=O)c1ccccc1NC(=O)CN1CCN(Cc2ccc(Cl)c(Cl)c2)CC1  1.22 µM
40. NC(=O)c1cc(Cc2ccccc2)sc1NC(=O)c1ccc(COc2ccc(Br)cc2)cc1  1.19 µM
41. NC(=O)c1cc(Cc2ccccc2)sc1NC(=O)Cc1cccs1  1.16 µM
42. COc1ccc(OCc2cc(-c3nc4sc(Cc5ccccc5)cc4c(=O)[nH]3)ccc2OC)cc1  1.12 µM
43. COc1ccc(C(=O)Nc2ccccc2C(N)=O)cc1COc1ccccc1Cl  1.1 µM
44. COc1ccc(C(=O)Nc2sc(Cc3ccccc3)cc2C(N)=O)cc1OCc1ccccc1Cl  1.09 µM
45. COc1ccc(C(=O)Nc2sc(Cc3ccccc3)cc2C(N)=O)cc1COc1ccc(Cl)cc1  1.02 µM
46. NC(=O)c1ccccc1NC(=O)CN1CCN(Cc2ccc(Cl)cc2Cl)CC1  0.993 µM
47. NC(=O)c1ccsc1NC(=O)CN1CCN(Cc2ccc(Cl)c(Cl)c2)CC1  0.781 µM
48. NC(=O)c1ccccc1NC(=O)c1cccc(COc2cccc(Cl)c2)c1  0.675 µM
49. NC(=O)c1cc(Cc2ccccc2)sc1NC(=O)c1cccs1  0.671 µM
50. NC(=O)c1cc(Cc2ccccc2)sc1NC(=O)c1ccc(COc2ccc(Cl)cc2Cl)s1  0.56 µM
51. COc1cc(-c2nc3ccccc3c(=O)[nH]2)ccc1OCc1ccccc1[N+](=O)[O-]  0.476 µM
52. COc1ccc(C(=O)Nc2sc(Cc3ccccc3)cc2C(N)=O)cc1COc1ccccc1Cl  0.439 µM
53. COc1ccc(C(=O)Nc2sc(Cc3ccccc3)cc2C(N)=O)cc1COc1cccc(Cl)c1Cl  0.401 µM
54. COc1ccc(C(=O)Nc2sc(Cc3ccccc3)cc2C(N)=O)cc1COc1cccc(Cl)c1  0.355 µM
55. COc1ccc(C(=O)Nc2sc(Cc3ccccc3)cc2C(N)=O)cc1COc1ccc(Cl)cc1Cl  0.293 µM
56. O=c1[nH]c(-c2ccc(OCc3ccccc3F)cc2)nc2ccccc12  0.25 µM
57. NC(=O)c1cc(Cc2ccccc2)sc1NC(=O)c1cccc(COc2ccc(Cl)cc2Cl)c1  0.047 µM
